pIC50: −log10 of the molar value. Where “and” joins values, the source holds several entries; their conditions need not be identical. Equal entries are not always repeated.

For this test, the system named is LG0703-F948-PDC spheroids with HUVEC/MSC, viability. Kind of test: Anticancer human tumor LG0703-F948-PDC patient-derived lung adenocarcinoma cell line growth inhibition [IpAb]. As to conditions: for viability, T/C: stronger effect = lower value. An excerpt: Combinatorial screen of targeted agents with ipatasertib and abemaciclib in multi-cell type tumor spheroids
A high-throughput screen of multi-cell type tumor spheroids was designed to identify active combinations of targeted small molecules and ipatasertib or abemaciclib. Complex spheroids include a stromal component modeled by human endothelial cells (HUVEC) and fibroblasts modeled by human mesenchymal stem cells (MSCs). The concentration ranges selected for each drug and investigational agent were based upon clinically achievable concentrations if the clinical Cmax of the agent was known.
Compounds. The drugs and investigational agents: ipatasertib (NSC767898), abemaciclib(NSC768073), selumetinib (NSC741078), trametinib (758246), adavosertib (NSC754352), everolimus (NSC733504), sapanisertib (NSC764658), vemurafenib (NSC761431), venetoclax (NSC766270), copanlisib (NSC809693), apelisib (NSC765974), palbociblib (NSC758247), vemurafenib (NSC761431), dabrafenib (NSC764134), ravoxertinib (NSC781343), BMS-387032 (NSC767048), sotorasib (NSC818433), talazoparib (NSC767125) and afursertib (NSC778305), were obtained from the National Cancer Institute (NCI) Developmental Therapeutics Program Chemical Repository. The FDA-approved anticancer drug set is available from the NCI Developmental Therapeutics Program. […] The stock solutions were prepared in dimethyl sulfoxide (DMSO, Sigma-Aldrich, St. Louis, MO, cat. D2650) at 800-fold the tested concentration and stored at -70 degrees C prior to their use. All drugs and investigational agents were tested over a range starting from a high concentration at or near the clinical Cmax and decreasing in half-log increments. If the clinical Cmax for an agent had not been determined, the highest concentration tested was 10 microM.
NCI60 Cell Culture. NCI60 cell lines were obtained from the NCI Developmental Therapeutics Program Tumor Repository. For each lot of cells, the Repository performed Applied Biosystems AmpFLSTR Identifiler testing with PCR amplification to confirm consistency with the published Identifier STR profile for each cell line. Cells were kept in continuous culture for no more than 20 passages. The optimal seeding densities for each of the cell lines at each time point assessed were determined prior to performing the concentration response studies. Briefly, the NCI60 human tumor lines were grown as monolayers in RPMI 1640 medium supplemented with 10% FBS and 2 mmol/L L-glutamine.
An additional 9 lines were from the NCI60 cell line panel including MDA-MB-231 breast carcinoma, MDA-MB-468 breast carcinoma, MCF7 breast carcinoma, Hs578T breast carcinoma, MALME-3M melanoma, SK-MEL-2 melanoma, SK-OV-3 ovarian carcinoma, DU-145 prostate carcinoma, PC-3 prostate carcinoma, all cell lines along with major genetic alterations are listed on Table 2. Pooled donor human umbilical vein endothelial cells (HUVEC, Lonza, cat. CC-2519) and human mesenchymal stem cells (hMSC, Lonza, cat. PT-2501) were purchased from Lonza (Walkersville, MD).
PDMR cell lines were grown in complete medium (DC medium): Dulbecco's modified Eagle's medium (DMEM)/F12 supplemented with 5% fetal bovine serum (FBS), 2 mM L-glutamine, 100 U/mL penicillin and 100 µg/ml streptomycin, 0.4 µg/ml hydrocortisone, 10 ng/ml epidermal growth factor (EGF) recombinant human protein, 24 µg/mL adenine, and 0.1 mg/mL primocin. During culture from frozen stock vials, PDMR cells were cultured in the same medium containing 10 µM Y-27632 (see Table 3). The PDCs were cultured in complete DMEM/F12 media without 10 microM Y-27632 dihydrochloride for at least two passages prior to the screen. The pooled donor HUVEC and hMSC were cultured in endothelial cell growth medium 2 (PromoCell, Heidelberg, Germany, cat. C-22011) and mesenchymal stem cell growth medium 2 (PromoCell, cat. C-28009), respectively. For all experiments, HUVEC and hMSC were used at passages </=5.
[…]

The mark [1] stands for this setting: curve of first compound, second compound 0.1 µM.
Where [2] appears, read: curve of first compound, second compound 0.316 µM.
Setting [3] is: curve of first compound, second compound 1 µM.
Setting [4] is: curve of first compound, second compound 3.16 µM.
The mark [5] stands for this setting: curve of first compound, second compound 10 µM.
Setting [6] is: second compound 0.1 µM, first compound 0.0316 µM.
The mark [7] stands for this setting: second compound 0.1 µM, first compound 0.1 µM.
Setting [8] is: second compound 0.1 µM, first compound 0.316 µM.
Setting [9] is: second compound 0.1 µM, first compound 1 µM.
The mark [10] stands for this setting: second compound 0.1 µM, first compound 3.16 µM.
Setting [11] is: second compound 0.1 µM, first compound 10 µM.
Where [12] appears, read: second compound 0.316 µM, first compound 0.0316 µM.
Where [13] appears, read: second compound 0.316 µM, first compound 0.1 µM.
The mark [14] stands for this setting: second compound 0.316 µM, first compound 0.316 µM.
[15] abbreviates: second compound 0.316 µM, first compound 1 µM.
Where [16] appears, read: second compound 0.316 µM, first compound 3.16 µM.
[17] abbreviates: second compound 0.316 µM, first compound 10 µM.
The mark [18] stands for this setting: second compound 1 µM, first compound 0.0316 µM.
The mark [19] stands for this setting: second compound 1 µM, first compound 0.1 µM.
[20] abbreviates: second compound 1 µM, first compound 0.316 µM.
Setting [21] is: second compound 1 µM, first compound 1 µM.
The mark [22] stands for this setting: second compound 1 µM, first compound 3.16 µM.
Setting [23] is: second compound 1 µM, first compound 10 µM.
The mark [24] stands for this setting: second compound 3.16 µM, first compound 0.0316 µM.
[25] abbreviates: second compound 3.16 µM, first compound 0.1 µM.
Where [26] appears, read: second compound 3.16 µM, first compound 0.316 µM.
Where [27] appears, read: second compound 3.16 µM, first compound 1 µM.
Setting [28] is: second compound 3.16 µM, first compound 3.16 µM.
Where [29] appears, read: second compound 3.16 µM, first compound 10 µM.
The mark [30] stands for this setting: second compound 10 µM, first compound 0.0316 µM.
The mark [31] stands for this setting: second compound 10 µM, first compound 0.1 µM.
Setting [32] is: second compound 10 µM, first compound 0.316 µM.
The mark [33] stands for this setting: second compound 10 µM, first compound 1 µM.
Setting [34] is: second compound 10 µM, first compound 3.16 µM.
Where [35] appears, read: second compound 10 µM, first compound 10 µM.
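Further: spheroids exposed to compounds for seven days before readout.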
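Wherever viability, T/C is given: T/C percent relative to DMSO vehicle wells set as 100% viability.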

Take `Cn1ncc(Cl)c1-c1cc(C(=O)NC(CN)Cc2cccc(F)c2)sc1Cl` (centres undefined) + CC(C)NCC(C(=O)N1CCN(c2ncnc3c2C(C)CC3O)CC1)c1ccc(Cl)cc1: the pIC50 under setting [1] was 6.15; the pIC50 under setting [2] is 6.03; the pIC50 under setting [3] was 6.28; the pIC50 under setting [4] is above 7.50; the pIC50 under setting [5] is above 7.50. Moreover, the viability, T/C was 75.9% under setting [6]; 75.1% under setting [7]; 53.7% under setting [8]; 53.4% under setting [9]; 15.4% under setting [10]; 0.11% under setting [11]. Moreover, the viability, T/C is, setting by setting: under setting [12], 60%; under setting [13], 57.1%; under setting [14], 53.8%; under setting [15], 50.2%; under setting [16], 18.7%; under setting [17], 0.1%. Further, the viability, T/C by setting is: under setting [18], 54.7%; under setting [19], 50.5%; under setting [20], 49.4%; under setting [21], 48.1%; under setting [22], 11%; under setting [23], 0.1%. The viability, T/C runs as follows: under setting [24], 41.2%; under setting [25], 44.9%; under setting [26], 43.7%; under setting [27], 40.5%; under setting [28], 18.9%; under setting [29], 0.1%. Further, the viability, T/C under setting [30] was 41.8%; the viability, T/C under setting [31] is 42.1%; the viability, T/C under setting [32] was 35%; the viability, T/C under setting [33] was 39.3%; the viability, T/C under setting [34] was 9.68%; the viability, T/C under setting [35] was 0.15%.
Regarding `CC(C)(C)c1cnc(CSc2cnc(NC(=O)C3CCNCC3)s2)o1`, the viability, T/C is 105% and 90.3% (compound 0.00949 µM); 84% and 77.8% (compound 0.03 µM); 58.7% and 44.8% (compound 0.0949 µM); 0.71% and 0.81% (compound 0.3 µM); 0.43% and 0.49% (compound 0.949 µM); 0.25% and 0.28% (compound 3 µM). Besides, the pIC50 (curve of compound) is 6.97 and 7.11.
As to `Cn1ncc(Cl)c1-c1cc(C(=O)NC(CN)Cc2cccc(F)c2)sc1Cl` (centres undefined), the viability, T/C (compound 0.0316 µM) is 85.7% and 79%; the viability, T/C (compound 0.1 µM) was 71.9% and 81.5%; the viability, T/C (compound 0.316 µM) is 60.7% and 58.4%; the viability, T/C (compound 1 µM) was 48% and 62.5%; the viability, T/C (compound 3.16 µM) was 17.1% and 21.7%; the viability, T/C (compound 10 µM) was 0.19%. Further, the pIC50 (curve of compound) is 6.19 and 5.93.
For the compound `CC1(C)CCC(CN2CCN(c3ccc(C(=O)NS(=O)(=O)c4ccc(NCC5CCOCC5)c([N+](=O)[O-])c4)c(Oc4cnc5[nH]ccc5c4)c3)CC2)=C(c2ccc(Cl)cc2)C1` + CC(C)NCC(C(=O)N1CCN(c2ncnc3c2C(C)CC3O)CC1)c1ccc(Cl)cc1, the pIC50 under setting [1] was 5.39; the pIC50 under setting [2] is 5.50; the pIC50 under setting [3] was above 7.50; the pIC50 under setting [4] was above 7.50; the pIC50 under setting [5] is above 7.50. The viability, T/C under setting [6] is 90.8%; the viability, T/C under setting [7] was 82.1%; the viability, T/C under setting [8] is 77.8%; the viability, T/C under setting [9] is 72.8%; the viability, T/C under setting [10] was 64.2%; the viability, T/C under setting [11] was 10.8%. Also, the viability, T/C is, setting by setting: under setting [12], 71.2%; under setting [13], 60%; under setting [14], 67.4%; under setting [15], 63%; under setting [16], 50.4%; under setting [17], 8.61%. Also, the viability, T/C under setting [18] was 49.2%; the viability, T/C under setting [19] was 43%; the viability, T/C under setting [20] was 53%; the viability, T/C under setting [21] was 46.5%; the viability, T/C under setting [22] was 44.3%; the viability, T/C under setting [23] is 7.68%. In addition, the viability, T/C by setting is: under setting [24], 42.1%; under setting [25], 44.4%; under setting [26], 40.9%; under setting [27], 39.8%; under setting [28], 30.6%; under setting [29], 5.93%. Moreover, the viability, T/C is, setting by setting: under setting [30], 41%; under setting [31], 43.3%; under setting [32], 35.3%; under setting [33], 37.9%; under setting [34], 29.2%; under setting [35], 3.65%.
Consider `Cc1nc(NC(=O)N2CCCC2C(N)=O)sc1-c1ccnc(C(C)(C)C(F)(F)F)c1` (centres undefined) + CC(C)NCC(C(=O)N1CCN(c2ncnc3c2C(C)CC3O)CC1)c1ccc(Cl)cc1, for which the pIC50 under setting [1] was 6.03; the pIC50 under setting [2] was 6.44; the pIC50 under setting [3] is 7.19; the pIC50 under setting [4] is above 7.50; the pIC50 under setting [5] was above 7.50. For the same compound, the viability, T/C was 77.9% under setting [6]; 76.6% under setting [7]; 64.3% under setting [8]; 50.7% under setting [9]; 22.4% under setting [10]; 2.44% under setting [11]. Further, the viability, T/C is 59.6% under setting [12]; 60.8% under setting [13]; 52.1% under setting [14]; 36.5% under setting [15]; 21.1% under setting [16]; 2.34% under setting [17]. The viability, T/C reads like this: under setting [18], 54%; under setting [19], 46.7%; under setting [20], 39.7%; under setting [21], 32.1%; under setting [22], 13.8%; under setting [23], 1.78%. Besides, the viability, T/C is 45.5% under setting [24]; 39.7% under setting [25]; 35.8% under setting [26]; 24.1% under setting [27]; 13.1% under setting [28]; 2.03% under setting [29]. The viability, T/C under setting [30] was 39.5%; the viability, T/C under setting [31] is 33.4%; the viability, T/C under setting [32] is 35.9%; the viability, T/C under setting [33] was 19%; the viability, T/C under setting [34] was 12.3%; the viability, T/C under setting [35] is 1.55%.

As usually defined, the pIC50 is the negative decadic logarithm of the IC50, by convention in mol/L. A word on the viability, T/C: it is the ratio of treated to control.
